Assay results from patent US9375005B2, “5-halogenopyrazole indanyl carboxamides” (BAYER CROPSCIENCE AG, priority 2012, dated 2016).
Like-named read-outs stand apart in the source and are kept apart here.

Tests used:
[1] = Measurement of log P values by HPLC on reversed phase columns (EEC directive 79/831 Annex V.A8); assay type: physicochemical
Puccinia recondita = assay: In vivo preventive test on Puccinia recondita (brown rust on wheat); settings: wheat plants sprayed 24 h before contamination, grading 12 days after contamination
Experimental: Plants, used as controls, are treated with the mixture of acetone/tween/DMSO/water not containing the active material. After 24 hours, the plants are contaminated by spraying the leaves with an aqueous suspension of Puccinia recondita spores (100 000 spores per ml). […] Grading (% of efficacy) is carried out 12 days after the contamination, in comparison with the control plants.

Uromyces appendiculatus = assay: In vivo preventive test on Uromyces appendiculatus (bean rust); settings: bean plants sprayed 24 h before contamination, grading 11 days after contamination
How it was run: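 Saxa bean plants grown at 24° C were sprayed at the 2-leaf stage (9 cm) with compound in acetone/tween/DMSO/water; controls got solvent mix only. Leaves inoculated 24 h later with U. appendiculatus spores (150 000 spores/ml). Efficacy (%) graded 11 days post-inoculation versus controls.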

Pyrenophora teres = assay: In vivo preventive test on Pyrenophora teres (net blotch on barley); settings: barley plants sprayed 24 h before contamination, grading 14 days after contamination
Experimental: Barley plants (“Plaisant” variety), sown in starter cups on a 50/50 peat soil-pozzolana substrate and grown at 22° C., are treated at the 1-leaf stage (10 cm height) by spraying with the active ingredient prepared as described above. Plants, used as controls, are treated with the mixture of acetone/tween/DMSO/water not containing the active material. After 24 hours, the plants are contaminated by spraying the leaves with an aqueous suspension of Pyrenophora teres spores (12 000 spores per ml). The spores are collected from a 12-day-old culture. […] Grading (% of efficacy) is carried out 14 days after the contamination, in comparison with the control plants.

Alternaria brassicae = assay: In vivo preventive test on Alternaria brassicae (leaf spot on radish); settings: radish plants sprayed 24 h before contamination, grading 6 days after contamination vs control plants
Experimental: Radish plants (“Pernod Clair” variety), sown in starter cups on a 50/50 peat soil-pozzolana substrate and grown at 17° C., are treated at the cotyledon stage by spraying with the active ingredient prepared as described above. Plants, used as controls, are treated with the mixture of acetone/tween/DMSO/water not containing the active material. After 24 hours, the plants are contaminated by spraying the cotyledons with an aqueous suspension of Alternaria brassicae spores (50 000 spores per ml). The spores are collected from a 15-day-old culture. […] Grading (% of efficacy) is carried out 6 days after the contamination, in comparison with the control plants.

Botrytis cinerea = assay: In vivo preventive test on Botrytis cinerea (grey mould); settings: gherkin plants sprayed 24 h before contamination, grading 4 to 5 days after contamination
Experimental: Gherkin plants (“Vert petit de Paris” variety), sown in starter cups on a 50/50 peat soil-pozzolana substrate and grown at 24° C., are treated at the Z11 cotyledon stage by spraying with the active ingredient prepared as described above. Plants, used as controls, are treated with the mixture of acetone/tween/DMSO/water not containing the active material. After 24 hours, the plants are contaminated by spraying the cotyledons with an aqueous suspension of cryopreserved Botrytis cinerea spores (50 000 spores per ml). The spores are suspended in a nutrient solution composed of 10 g/L of PDB, 50 g/L of D-Fructose, 2 g/L of NH4NO3 and 1 g/L of KH2PO4. […] Grading (% of efficacy) is carried out 4 to 5 days after the contamination, in comparison with the control plants.

Septoria tritici = assay: In vivo preventive test on Septoria tritici (leaf spot on wheat); settings: dose 500 ppm; wheat plants sprayed 24 h before contamination; grading 24 days after contamination
Experimental: Wheat plants (“Scipion” variety), sown in starter cups on a 50/50 peat soil-pozzolana substrate and grown at 22° C., are treated at the 1-leaf stage (10 cm height) by spraying with the active ingredient prepared as described above. Plants, used as controls, are treated with the mixture of acetone/tween/DMSO/water not containing the active material. After 24 hours, the plants are contaminated by spraying the leaves with an aqueous suspension of cryopreserved Septoria tritici spores (500 000 spores per ml). […] Grading (% of efficacy) is carried out 24 days after the contamination, in comparison with the control plants.

Sphaerotheca fuliginea = assay: In vivo preventive test on Sphaerotheca fuliginea (powdery mildew on cucurbits); settings: dose 500 ppm; gherkin plants sprayed 24 h before contamination; grading 12 days after contamination
Experimental: Gherkin plants (“Vert petit de Paris” variety), sown in starter cups on a 50/50 peat soil-pozzolana substrate and grown at 24° C., are treated at the Z11 cotyledon stage by spraying with the active ingredient prepared as described above. Plants, used as controls, are treated with the mixture of acetone/tween/DMSO/water not containing the active material. After 24 hours, the plants are contaminated by spraying the cotyledons with an aqueous suspension of Sphaerotheca fuliginea spores (100 000 spores per ml). The spores are collected from infected plants. The contaminated to gherkin plants are incubated at about 20° C. and at 70-80% relative humidity. Grading (% of efficacy) is carried out 12 days after the contamination, in comparison with the control plants.

Pyricularia oryzae = assay type: in vivo; settings: rice plants sprayed 24 h before contamination, grading 6 days after contamination
Phakopsora pachyrhizi = assay: In vivo preventive Phakopsora test (soybeans); settings: concentration 10 ppm of active ingredient; soybean plants; evaluated 7 days after inoculation

| SMILES | logP ([1]; method marked [a]) | Eff. % (Puccinia recondita; dose 500 ppm) [%] | Eff. % (Uromyces appendiculatus; dose 500 ppm) [%] | Eff. % (Pyrenophora teres; dose 500 ppm) [%] | Eff. % (Alternaria brassicae; dose 500 ppm) [%] | Eff. % (Botrytis cinerea; dose 500 ppm) [%] | Eff. % (Septoria tritici) [%] | Eff. % (Sphaerotheca fuliginea) [%] | further results |
| --- | --- | --- | --- | --- | --- | --- | --- | --- | --- |
| Cn1nc(C(F)F)c(C(=O)Nc2cccc3c2CCC32CC2)c1F [Example 11] | 3.33[a] | 98 | 100 | 80 | 92 | 98 | – | – | – |
| CC1CC(C)(C)c2c(C3CC3)ccc(NC(=O)c3c(C(F)F)nn(C)c3F)c21 (stereo not shown) [Example 17] | 4.35[a]; | 94 | 97 | 97 | – | 98 | – | – | logP ([1]; method marked [b]): 4.28[b] |
| Cc1ccc(NC(=O)c2c(C(F)F)nn(C)c2F)c2c1C(C)(C)CC2C (stereo not shown) [Example 19] | 3.99[a]; | 94 | 77 | 97 | 75 | 98 | – | – | logP ([1]; method marked [b]): 3.92[b] |
| CC1c2cccc(NC(=O)c3c(C(F)F)nn(C)c3F)c2CC12CCCC2 (stereo not shown) [Example 32] | 4.39[a] | 100 | 100 | 97 | 93 | – | 90 | 98 | – |
| CC1c2cccc(NC(=O)c3c(C(F)F)nn(C)c3Cl)c2CC12CCCC2 (stereo not shown) [Example 33, 5-chloro-3-(difluoromethyl)-1-methyl-N-(1′-methyl-1′,3′-dihydrospiro[cyclopentane-1,2′-inden]-4′-yl)-1H-pyrazole-4-carboxamide] | – | 93 | 100 | – | 86 | – | 90 | 95 | chromatographic logP ([1]; pH 2.7): 4.63 |
| CC1CC(C(C)C)c2cccc(NC(=O)c3c(C(F)F)nn(C)c3F)c21 (stereo not shown) [Example 34] | 4.19[a] | 97 | 100 | 97 | 93 | – | 85 | 95 | – |
| Cn1nc(C(F)F)c(C(=O)Nc2cccc3c2CC(Cc2ccccc2)C3)c1Cl (stereo not shown) [Example 39] | 4.41[a] | – | 100 | – | 79 | – | – | – | Eff. % (Pyricularia oryzae; dose 500 ppm): 86% |
| CC1CC(C)c2c(NC(=O)c3c(C(F)F)nn(C)c3Cl)cccc21 (stereo not shown) [Example 44] | – | 100 | 100 | – | – | – | – | – | Eff. % (Phakopsora pachyrhizi): 98% |
| CC1Cc2c(NC(=O)c3c(C(F)F)nn(C)c3F)cccc2C1(C)C (stereo not shown) [Example 45] | 3.94[a] | 100 | 100 | – | – | – | – | 100 | Eff. % (Pyricularia oryzae; dose 500 ppm): 83% |
| CC1Cc2c(NC(=O)c3c(C(F)F)nn(C)c3Cl)cccc2C1(C)C (stereo not shown) [Example 46] | 4.19[a] | 100 | 100 | 75 | 86 | – | – | – | Eff. % (Phakopsora pachyrhizi): 94%; Eff. % (Pyricularia oryzae; dose 500 ppm): 97% |
| CC1CC2(CC2)c2cccc(NC(=O)c3c(C(F)F)nn(C)c3F)c21 (stereo not shown) [Example 50] | 3.55[a] | 98 | 100 | 80 | 93 | 100 | – | 98 | – |
| CC1CC2(CC2)c2cccc(NC(=O)c3c(C(F)F)nn(C)c3Cl)c21 (stereo not shown) [Example 51] | 3.83[a] | 98 | 100 | 70 | – | 94 | – | – | Eff. % (Phakopsora pachyrhizi): 93% |
| CC1CC2(CC2)c2cccc(NC(=S)c3c(C(F)F)nn(C)c3F)c21 (stereo not shown) [Example 60] | 3.71[a] | – | 100 | 100 | – | 100 | 93 | 100 | – |
| CC1c2c(NC(=O)c3c(C(F)F)nn(C)c3F)cccc2C(C)(C)C1C (stereo not shown) [Example 64] | 3.96[a] | 100 | 100 | 97 | 100 | 100 | 93 | 100 | – |
| CC1CC(CC(C)(C)C)c2cccc(NC(=O)c3c(C(F)F)nn(C)c3F)c21 (stereo not shown) [Example 70] | 4.92[a] | 98 | 100 | – | 89 | – | 79 | 100 | – |
| Cn1nc(C(F)F)c(C(=O)Nc2cccc3c2CC(C)(C)C3)c1Cl [Example 73] | 3.21[a] | 100 | 100 | – | 83 | – | 71 | 100 | – |
| CC1c2cccc(NC(=O)c3c(C(F)F)nn(C)c3F)c2CC1(C)C (stereo not shown) [Example 78] | 3.92[a] | 98 | 100 | – | 95 | 75 | 88 | 100 | – |
| CC(C)CC1CC(C)c2c(NC(=O)c3c(C(F)F)nn(C)c3F)cccc21 (stereo not shown) [Example 80] | 4.71[a] | 98 | 100 | 97 | 97 | – | 86 | 98 | – |
| Cn1nc(C(F)F)c(C(=O)Nc2cccc3c2C(C)(C)CC3)c1Cl [Example 89] | 3.53[a] | – | – | – | – | – | – | – | Eff. % (Pyricularia oryzae; dose 100 ppm): 93% |
| CCC1Cc2c(NC(=O)c3c(C(F)F)nn(C)c3Cl)cccc2C1(C)C (stereo not shown) [Example 90] | 4.61[a] | 100 | 100 | 75 | 90 | – | 79 | 100 | – |
| CCC1(CC)Cc2c(NC(=O)c3c(C(F)F)nn(C)c3F)cccc2C1C (stereo not shown) [Example 101] | 4.67[a] | 98 | 100 | – | 100 | – | 88 | 100 | – |
| CC1CC2(CCCC2)c2cccc(NC(=O)c3c(C(F)F)nn(C)c3F)c21 (stereo not shown) [Example 103] | 4.39[a] | – | – | – | – | – | – | – | Eff. % (Puccinia recondita; dose 100 ppm): 98%; Eff. % (Uromyces appendiculatus; dose 100 ppm): 100%; Eff. % (Pyrenophora teres; dose 100 ppm): 80%; Eff. % (Botrytis cinerea; dose 100 ppm): 100% |
| CC1CC2(CCCCC2)c2cccc(NC(=O)c3c(C(F)F)nn(C)c3F)c21 (stereo not shown) [Example 107] | 4.73[a] | – | – | – | – | – | – | – | Eff. % (Puccinia recondita; dose 100 ppm): 100%; Eff. % (Uromyces appendiculatus; dose 100 ppm): 100%; Eff. % (Alternaria brassicae; dose 100 ppm): 97%; Eff. % (Botrytis cinerea; dose 100 ppm): 100% |
